This is an account of results in patent US8273771B2, “Ischemic disorder or disease inhibitors” (Pronas Pharma AB, priority 2007, dated 2012).

One test has as its system MCA and BA from SAH rats. Description: Myograph contractile response to ET-1 in cerebral arteries of treated SAH rats. More on the design: species or system rat. The note with it: in vivo treated SAH rats compared to SAH rats, no significant difference to sham. On the procedure: After 48 hours of observation sham, SAH treated with SB386023-b or treated with the PKC inhibitor RO-31-7549 or U0126 or SAH+vehicle operated rats (see above SAH model) were anaesthetized with CO2 and decapitated. The brains were quickly removed and chilled in ice-cold bicarbonate buffer solution (see composition below). Under a dissection microscope, the middle cerebral artery (MCA), the basilar artery (BA) and circle of Willis were carefully dissected free from the brain and cleared of connective tissue. The MCA and BA were immediately mounted in myographs for in vitro pharmacology or snap frozen at −80° C. and examined by real-time PCR.
In vitro Pharmacology Myograph Experiments For contractile experiments a sensitive myograph was used for recording the isometric tension in isolated cerebral arteries (Hogestatt et al., (1983, Mulvany and Helpern, 1977). The vessels were cut into 1 mm long cylindrical segments and mounted on two 40 μm in diameter stainless steel wires in a Myograph (Danish Myo Technology A/S, Denmark). One wire was connected to a force displacement transducer attached to an analog-digital converter unit (ADInstruments, Oxford, UK). The other wire was connected to a micrometer screw, allowing fine adjustments of vascular tone by varying the distance between the wires. Measurements were recorded on a computer by use of a PowerLab unit (ADInstruments). […]

In another test the test system is ETB receptor protein. The experiment in a line: Immunohistochemistry of cerebral arteries after SAH. It is filed as in vivo, rat. The note with it: smooth muscle cell layer; sham 100±3%, SAH 167±4%. From the text:
(§1) The MCA and BA were dissected out and then placed onto Tissue TEK (Gibco) and frozen. They were then sectioned into 10 μm thick slices. The primary antibodies used were rabbit antihuman ETB (IBL, 16207), diluted 1:400, goat anti mouse 5-HT1B (Santa Cruz Biotechnologies, sc-1461), diluted 1:100, AT1 (Santa Cruz Biotechnologies), diluted 1:100, mouse anti rat CD31 (Serotec, MCA1746), diluted 1:200, and mouse anti rat smooth muscle actin (Serotec, MCA1905T) diluted 1:100. All dilutions were done in PBS with 10% fetal calf serum. The secondary antibodies used were donkeyantimouse Cy™5 conjugated (JacksonImmunoResearch, 715-175-150) 1:100, donkeyantirabbit Cy™3 conjugated (JacksonImmunoResearch, 711-165-152) 1:100 in PBS with 10% fetal calf serum. The antibodies were detected at the appropriate wavelength in a confocal microscopy (Zeiss, USA). As control, only secondary antibodies were used.
(§2) The images were analysed using the ImageJsoftware (http://rsb.info.nih.gov/ij/). The fluorescence in 4-6 different areas in each artery was measured and a mean value was calculated. These values are presented as percentage fluorescence in the SAH groups compared to the sham group, where the sham group is set to 100%.

The subject of the next test is AT1 receptor protein. The test is described as above. The note with it: smooth muscle cell layer; sham 100±7%, SAH 168±7%. It is filed as in vivo, rat.
Description: as §1, §2

The structures appear in SMILES notation.

As for `Cn1cc(C2=C(c3cn(CCCN)c4ccccc34)C(=O)NC2=O)c2ccccc21` [RO-31-7549], the “ET-1 induced contractile response” value in the test with MCA and BA from SAH rats is reported as “significantly attenuated”.

Turning to `Oc1cc(-c2nc(-c3ccccc3)[nH]c2-c2ccncc2)ccc1Cl` [SB386023-b], the “ET-1 induced contractile response” value in the test with MCA and BA from SAH rats is given as “significantly attenuated”. The “ETB receptor protein level, fluorescence compared to sham” value with ETB receptor protein is given as 109±5%. Besides, the “AT1 receptor protein level, fluorescence compared to sham” value with AT1 receptor protein stood at 105±10%.
